Holding throughout (format): cell-based
The subject of experiment [1] is MHC class I molecules of human peripheral blood-derived dendritic cells. As to the kind of experiment: Effect on expression of MHC class I molecules from human peripheral blood-derived dendritic cells. Particulars: dendritic cells matured with TNF-α, 3 days; read-out: EC50 (reduction of 50% of the number of cells wherein MHC class I molecules were highly expressed). The source says:
Effect on Expression of MHC Class I Molecules from Human Peripheral Blood-Derived Dendritic Cells
Monocytes were isolated from human peripheral blood by the specific gravity centrifugation method. Thereafter, using mouse anti-human CD14 antibody-binding microbeads and a magnetic cell separation system (Miltenyi Biotec), CD14 positive cells were separated from the peripheral blood monocytes. The separated CD14 positive cells were suspended in an RPMI 1640 medium containing 10% FBS, and the suspension was then inoculated in a 6-well plate, resulting in a concentration of 1.0×10^6 cells/well. It was cultured at 37° C. for 20 minutes in an incubator containing 5% carbon dioxide. […] Thereafter, RPMI 1640 containing a 500 U/ml human recombinant […] (hereinafter referred to as GM-CSF; Anapure Bioscientific), 50 ng/ml human recombinant interleukin 4 (hereinafter referred to as IL-4; Pepro Tech), and 10% FBS, was added to the remaining suspension at a concentration of 2 ml/well. The obtained mixture was then cultured at 37° C. in an incubator containing 5% carbon dioxide. When adhesive CD14 positive cells are cultured in the presence of GM-CSF and IL-4, the CD14 positive cells were differentiated into non-adhesive immature dendritic cells. After the cells had been cultured for 7 days, non-adhesive cells were recovered to obtain immature dendritic cells. Using a 6-well plate, the immature dendritic cells (2.5×10^5 cells/well) were cultured in RPMI 1640 containing a 100 U/ml human recombinant tumor necrosis factor-α (hereinafter referred to as TNF-a; Pepro Tech), a test compound, and 10% FBS, at 37° C. for 3 days in an incubator containing 5% carbon dioxide. The dendritic cells became mature as a result of the presence of TNF-α, but in the present test, a test compound was allowed to simultaneously act on the cells. The mature dendritic cells were then stained with fluoroisothiocyanate-labeled mouse anti-human MHC class I monoclonal antibody (an antibody generated from the cell line W6/32 (ATCC No. CRL 1991)). The rate of the number of cells wherein MHC class I molecules were highly expressed to the total number of cells was measured by flow cytometry. The reduction rate of the number of cells wherein MHC class I molecules were highly expressed was calculated using the following formula (2), and the concentrations of test compounds necessary for reduction of 50% (EC50 values) were obtained.
[formula] • Eexp: (The number of cells, wherein MHC class I molecules are highly expressed, in cultured cells containing test compound)/(the total number of cells) • Cexp: (The number of cells, wherein MHC class I molecules are highly expressed, in cultured cells containing no test compounds)/(the total number of cells)

In experiment [2] the test system is MHC class I molecules of T1 cells (human lymphoma cell line 174×CEM.). The experiment is described as follows: Effect on expression of MHC class I from T1 cells (flow cytometry, MFI). Particulars: 3 days culture. An outline of the steps:
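EC20 is the compound level that lowers MHC class I MFI by 20% relative to compound-free cultures. Read-out was flow cytometry after FITC W6/32 staining.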
(In flow cytometry, cells or beads pass a laser one at a time.)

For experiment [3], the system named is human dendritic cells cultured with human allogenic T cells. As to the kind of experiment: Effect on the ability of human dendritic cells to induce the growth of allogenic T cells ([3H]-thymidine incorporation). Particulars: dendritic cells treated 3 days with test compound and TNF-α, then 5 days with allogenic T cells, read-out: IC50 (inhibition of DNA synthesis of lymphocytes). As to the method:
Effect on the Ability of Human Dendritic Cells to Induce the Growth of Allogenic T Cells
Immature dendritic cells were cultured with a test compound and TNF-α for 3 days by the same method as that described in Test Example 2. The obtained dendritic cells (2.5×10^3 cells/50 μl/well) were cultured together with human allogenic T cells (2.0×10^5 cells/150 μl/well) in a 96-well flat bottom plate at 37° C. for 5 days in an incubator containing 5% carbon dioxide. Thereafter, [^3H]-thymidine (Amersham Pharmacia Biotech) was added thereto at an amount of 1 μCi/10 μl/well, 16 hours before completion of the culture. After completion of the culture, cells were captured on a glass filter using a cell harvester (Skatron Instrument) and then dried. Thereafter, Scintillator ACS-II (Amersham Pharmacia Biotech) was added thereto, and the radioactivity of [^3H]-thymidine incorporated into the cells were then measured using a liquid scintillation counter. The inhibition rate of the DNA synthesis of lymphocytes was calculated using the following formula (3). Thereafter, the concentration of a test compound necessary for inhibition of 50% (IC50 value) was obtained.
[formula] • Eexp: The amount of [^3H]-thymidine incorporated into cultured cells containing test compound • Cexp: The amount of [^3H]-thymidine incorporated into cultured cells containing no test compounds
For orientation: Incorporation of labelled thymidine or its analogues reports DNA synthesis.

Where two headings read alike, the source gives them in different places.

Experimental findings from patent US7598244B2, “[1,2,4]triazolo[1,5,a]pyrimidin-2-ylurea derivative and use thereof” (Nippon Kayaku Kabushiki Kaisha, priority 2003, dated 2009) are described below.

For the molecule `O=C(Nc1ccccc1)Nc1nc2nccc(-c3cccs3)n2n1` [Example 001, 1-phenyl-3-[(7-thiophen-2-yl)-[1,2,4]triazolo[1,5-a]pyrimidin-2-yl]urea], the EC50 (usually the concentration that produces a half-maximal response) in experiment [1] is 460 nM. For the same molecule, the “EC20 (concentration necessary for suppressing 20% of the expression level of MHC class I molecules)” value in experiment [2] stood at 1100 nM. In addition, in experiment [3] (Homo sapiens), the IC50 (as a rule, the concentration that gives 50% inhibition) came to 1230 nM.
Consider `COc1ccc(-c2ccnc3nc(NC(=O)NCCCN4CCOCC4)nn23)cc1` [Example 067], for which the EC50 in experiment [1] came out at 2220 nM. Also, in experiment [2], the “EC20 (concentration necessary for suppressing 20% of the expression level of MHC class I molecules)” value was 300 nM.
The matching figures for `COc1ccc(-c2ccnc3nc(NC(=O)N[C@H](C(=O)N4CCN(C)CC4)C(C)C)nn23)cc1` [Example 069]: 2850 nM and 410 nM.
The matching figures for `COc1ccc(-c2ccnc3nc(NC(=O)NC(C(=O)NCC4CCCO4)C(C)C)nn23)cc1` (stereo not shown) [Example 071]: 670 nM and 530 nM.
On to `CC(=O)c1cccc(NC(=O)Nc2nc3nccc(-c4cccs4)n3n2)c1` [Example 005], for which the IC50 in experiment [3] was 650 nM.
On to `COc1ccc(-c2ccnc3nc(NC(=O)N[C@@H](C)C(=O)OC(C)(C)C)nn23)cc1` [Example 049], for which the EC50 in experiment [1] is 210 nM. Besides, the “EC20 (concentration necessary for suppressing 20% of the expression level of MHC class I molecules)” value in experiment [2] turned out to be 230 nM. The IC50 in experiment [3] (Homo sapiens) came out at 1630 nM.
The matching figures for `COc1ccc(-c2ccnc3nc(NC(=O)NC4CCCCC4)nn23)cc1` [Example 015]: 130 nM, 45 nM and 380 nM.
Regarding `COc1ccc(-c2ccnc3nc(NC(=O)NCCC(=O)NCC4CCCO4)nn23)cc1` (stereo not shown) [Example 158], in experiment [2], the “EC20 (concentration necessary for suppressing 20% of the expression level of MHC class I molecules)” value came to 390 nM. Besides, the IC50 in experiment [3] was found to be 690 nM.
As to `COc1ccc(-c2ccnc3nc(NC(=O)NC4CCCC4)nn23)cc1` [Example 027], the EC50 in experiment [1] worked out at 220 nM. Besides, in experiment [2], the “EC20 (concentration necessary for suppressing 20% of the expression level of MHC class I molecules)” value worked out at 67 nM.
With `COc1ccc(-c2ccnc3nc(NC(=O)NC4CCN(Cc5ccccc5)CC4)nn23)cc1` [Example 059], the EC50 in experiment [1] was 530 nM. In addition, the “EC20 (concentration necessary for suppressing 20% of the expression level of MHC class I molecules)” value in experiment [2] amounted to 230 nM.
Take `O=C(Nc1nc2nccc(-c3ccc(O)cc3)n2n1)NC1CCCCC1` [Example 024]: the EC50 in experiment [1] stood at 160 nM. In experiment [2], the “EC20 (concentration necessary for suppressing 20% of the expression level of MHC class I molecules)” value is 240 nM. In experiment [3] (Homo sapiens), the IC50 turned out to be 820 nM.
With `COc1ccc(-c2ccnc3nc(NC(=O)NC(C)C)nn23)cc1` [Example 030], in experiment [1], the EC50 was determined as 480 nM. The “EC20 (concentration necessary for suppressing 20% of the expression level of MHC class I molecules)” value in experiment [2] was 400 nM. The IC50 in experiment [3] (Homo sapiens) was 1250 nM.
As for `COc1ccc(-c2ccnc3nc(NC(=O)NCc4ccccc4)nn23)cc1` [Example 018], the EC50 in experiment [1] turned out to be 290 nM. Besides, the “EC20 (concentration necessary for suppressing 20% of the expression level of MHC class I molecules)” value in experiment [2] stood at 52 nM.
In the case of `COc1ccc(-c2ccnc3nc(NC(=O)N[C@H](C(=O)NCCN(C)C)C(C)C)nn23)cc1` [Example 057], in experiment [3], the IC50 turned out to be 2700 nM.
Consider `O=C(Nc1nc2nccc(-c3cccs3)n2n1)NC1CCCCC1` [Example 007], for which, in experiment [1], the EC50 stood at 660 nM. Also, the “EC20 (concentration necessary for suppressing 20% of the expression level of MHC class I molecules)” value in experiment [2] came to 180 nM. In experiment [3] (Homo sapiens), the IC50 came out at 970 nM.
